{"source": "patent US8986714B2", "about": "“Formulations, methods and procedures for reducing or preventing the development, or the risk of development, of neuropathology as a result of trauma” (Sapna Life Sciences Corporation, priority 2013, dated 2015)", "origin": "cited, not measured here", "key": {"[1]": {"system": "rat model of neuropathic pain"}, "[2]": {"system": "cat spinal dorsal horn neurons", "conditions": "noxious cutaneous stimulation and substance P"}, "migraine attacks": {"system": "migraine attacks", "conditions": "human, in vivo"}, "[3]": {"system": "chemotherapy-induced nausea and vomiting", "conditions": "in conjunction with another antiemetic drug"}, "[4]": {"system": "chronic post-surgical pain", "conditions": "perioperative administration; at two months or more after various types of surgery"}, "postherpetic neuralgia": {"system": "postherpetic neuralgia", "conditions": "combined with valacyclovir; six months later"}, "spinal cord ischemia": {"system": "spinal cord ischemia", "conditions": "rabbits"}, "spinal cord compression": {"system": "spinal cord compression", "conditions": "in vivo"}, "[5]": {"system": "immature mouse brain ischemia", "conditions": "treatment of acute seizures; measured four weeks later"}, "[6]": {"system": "chronic spinal cord injury", "conditions": "chronic spinal cord injury patients, first two weeks"}, "[7]": {"system": "chronic spinal cord injury", "conditions": "stable chronic spinal cord injury patients"}, "[8]": {"system": "amyotrophic lateral sclerosis"}, "[9]": {"system": "peripheral nerve crush injury", "conditions": "facial nerve and sciatic nerve injury models"}, "[10]": {"system": "partial sciatic nerve ligation", "conditions": "compared to controls"}, "traumatic brain injury": {"system": "traumatic brain injury", "conditions": "approximately 80 patients treated within eight hours after traumatic brain injury"}}}
{"molecule": "COc1ccccc1CN[C@H]1C2CCN(CC2)[C@H]1C(c1ccccc1)c1ccccc1", "note": "[CP-96,345]", "values": [{"measurement": "recovery from peripheral nerve injury", "setting": "[1]; animal model", "result": "promotes the recovery from peripheral nerve injury"}, {"measurement": "responses of spinal dorsal horn neurons", "setting": "[2]", "result": "blocks responses of cat spinal dorsal horn neurons to noxious cutaneous stimulation and to substance P"}]}
{"molecule": "COc1ccccc1[C@H](C)C(=O)N1C[C@@H]2[C@H](C1)C(c1ccccc1)(c1ccccc1)CC[C@@]2(O)c1ccccc1OC", "note": "[RPR100893]", "values": [{"measurement": "treatment of migraine attacks", "setting": "migraine attacks", "result": "not effective"}]}
{"molecule": "C[C@@H](O[C@H]1OCCN(Cc2n[nH]c(=O)[nH]2)[C@H]1c1ccc(F)cc1)c1cc(C(F)(F)F)cc(C(F)(F)F)c1", "note": "[aprepitant]", "values": [{"measurement": "acute effects on chemotherapy-induced nausea and vomiting", "setting": "[3]", "result": "proved to be effective when administered in conjunction with another antiemetic drug"}]}
{"molecule": "NCC1(CC(=O)O)CCCCC1", "note": "[gabapentin]", "values": [{"measurement": "incidence of chronic post-surgical pain", "setting": "[4]", "result": "reducing the incidence of chronic post-surgical pain"}, {"measurement": "rate of postherpetic neuralgia", "setting": "postherpetic neuralgia", "result": "reduced"}, {"measurement": "outcomes of neuropathology, spinal cord ischemia", "setting": "spinal cord ischemia", "result": "preventive effects"}, {"measurement": "outcomes of neuropathology, spinal cord compression", "setting": "spinal cord compression", "result": "preventive effects"}, {"measurement": "brain atrophy", "setting": "[5]", "result": "beneficial effects on brain atrophy"}]}
{"molecule": "O=C([O-])[O-].[Li+].[Li+]", "note": "[lithium carbonate]", "values": [{"measurement": "tolerability", "setting": "[6]", "result": "well tolerated over the first two weeks"}, {"measurement": "effect on neurological symptoms", "setting": "[7]", "result": "without effect on neurological symptoms"}, {"measurement": "mortality", "setting": "[8]; 22 patients, over 15 months", "result": "prevented death of 22 patients"}, {"measurement": "motor deterioration", "setting": "[8]; 22 patients, over 15 months", "result": "only minimal motor deterioration"}, {"measurement": "plasma levels", "setting": "[8]; daily oral doses", "result": "400 to 800", "unit": "µM"}]}
{"molecule": "[Cl-].[Li+]", "note": "[lithium chloride]", "values": [{"measurement": "expression of myelin genes", "setting": "[9]", "result": "stimulate the expression of myelin genes"}, {"measurement": "functional recovery", "setting": "[9]", "result": "accelerate functional recovery"}, {"measurement": "myelin structure", "setting": "[9]", "result": "restore myelin structure"}, {"measurement": "nociceptive scores in response to tactile and thermal stimuli", "setting": "[10]", "result": "reduced the nociceptive scores"}]}
{"molecule": "CC(=O)[C@H]1CC[C@H]2[C@@H]3CCC4=CC(=O)CC[C@]4(C)[C@H]3CC[C@]12C", "note": "[progesterone]", "values": [{"measurement": "development of symptoms of peripheral nerve injury", "setting": "[1]; early administration, intraperitoneally", "result": "prevents the development of symptoms of peripheral nerve injury"}, {"measurement": "tactile hypersensitivity, late treatment", "setting": "[1]; given for 11 days, starting on day 20, versus control group", "result": "no difference between this experimental group and the control group"}, {"measurement": "tactile hypersensitivity by 30 days", "setting": "[1]; started one hour after model induction, daily for the subsequent 10 days", "result": "no tactile hypersensitivity"}, {"measurement": "persistence of effect after treatment ended on day 10", "setting": "[1]; study period ended at day 85", "result": "persisted to the end of the study period"}, {"measurement": "neurological outcomes", "setting": "traumatic brain injury", "result": "improved neurological outcomes"}]}
